Source: article PMC6769468, “Endogenous Neuropeptide Nocistatin Is a Direct Agonist of Acid-Sensing Ion Channels (ASIC1, ASIC2 and ASIC3)” (Biomolecules, 2019)
Ends that are not written are not given here.

Columns and labels:
rat ASIC1a = molecular target: T1, rat ASIC1a (Rattus norvegicus, UniProt P55926); assay: Whole-cell current activation, rat ASIC1a in X. laevis oocytes; assay type: cell-based; settings: for ASIC1a current amplitude, % of control pH 5.5 stimulus: n = 4
T1 construct: expressed in transfected cells; host or cells: Xenopus laevis oocytes (injected)
T1 sequence (P55926 1-526): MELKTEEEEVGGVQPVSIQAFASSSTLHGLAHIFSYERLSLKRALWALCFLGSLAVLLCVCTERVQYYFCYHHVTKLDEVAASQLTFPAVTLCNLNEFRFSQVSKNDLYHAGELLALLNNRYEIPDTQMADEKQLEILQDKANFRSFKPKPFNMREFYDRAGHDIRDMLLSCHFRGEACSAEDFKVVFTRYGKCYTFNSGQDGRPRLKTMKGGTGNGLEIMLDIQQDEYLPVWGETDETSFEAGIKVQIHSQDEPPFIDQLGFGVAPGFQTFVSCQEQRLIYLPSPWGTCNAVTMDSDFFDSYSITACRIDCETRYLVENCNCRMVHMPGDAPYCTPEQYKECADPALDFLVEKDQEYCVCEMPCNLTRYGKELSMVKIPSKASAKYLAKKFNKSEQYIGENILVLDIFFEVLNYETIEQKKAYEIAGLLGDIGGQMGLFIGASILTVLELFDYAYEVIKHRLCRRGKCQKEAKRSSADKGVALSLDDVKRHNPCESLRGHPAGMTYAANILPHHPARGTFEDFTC
Procedure: (§1) Oocytes expressed rASIC1a, rASIC1b, rASIC2a, and rASIC3 homomeric channels were prepared as described. Injected oocytes were kept for two–three days at 19 °C and then for up to seven days at 15 °C in ND-96 medium supplemented with gentamycin (50 μg·mL^−1) and containing (in mM): 96 NaCl, 2 KCl, 1.8 CaCl2, 1 MgCl2, and 10 HEPES titrated to pH 7.4 with NaOH. Electrophysiological recordings were performed using the GeneClamp500 amplifier (Axon Instruments, Inverurie, UK) at a holding potential of -50 mV. The data were filtered at 20 Hz and digitized at 100 Hz using the L780 AD converter (L-Card, Moscow, Russia). Microelectrodes were filled with 3 M KCl. The external bath solution was ND-96 with pH adjusted to 7.4/7.8 (10 mM HEPES) /8.5 (10 mM Tris). Nocistatin containing solutions were freshly prepared and buffered each experimental day in ND-96 bath solution (pH 7.4/7.8/8.5). Proton-activated currents through ASIC channels were elicited by application of ND-96, in which 10 mM of HEPES was substituted with 10 mM MES at pH 5.5/ 10 mM acetic acid at pH 4.5. The whole-cell recording was performed if a response to the control pH stimulus was stable in at least two replicates. Nocistatin-activated currents were elicited by application of nocistatin containing solutions with various concentrations of the peptide.
Extracellular solutions were applied using a computer-controlled valve system with a flow rate of 1 mL/min. The oocyte chamber volume was 80 µL. The validity of the application system for studying ASIC channels expressed in oocytes was confirmed in experiments by application of a Cl-free solution (containing (in mM): 130 NMDG, 1 MgGluc2, 2 KGluc, 5 HEPES) (pH 7.4). Fast application of proton/peptide-activating solution was performed at a flow rate of 1 mL/sec (the change of the bath solution occurred within 100 ms), followed by PC controlled flow stopping (from 5 to 15 s).
Analysis of electrophysiological data was performed using OriginPro 8.6 software (OriginLab, Northampton, MA, USA). Curves were fitted using different logistic equations:
(a) Usual logistic equation [33] F1(x) = A – A/(1 + (x/x0)^nH), where F1(x) is the current amplitude at nocistatin concentration x ([x]) (response at concentration x), A is the maximal current amplitude (or the maximum asymptote or the stabilized response for an infinite concentration), x0 is the value of [x] at which the function reach half their maximum value (the EC50 value), and nH is the Hill coefficient (slope factor or a level of cooperativity);
(b) Equation for the model of unequal sites occupation F2(x) = A/(1 + (x/EC501)^nH)*(1 + (x/EC502)), multiplication of two logistic equations where F2(x) is the current amplitude at nocistatin concentration x, A is the maximal current amplitude, [EC501] is the half-maximal concentration of nocistatin binding to pool of “cooperative” sites (or 0.5 probability of “cooperative” sites’ occupancy) and [EC502] is the half-maximal concentration of nocistatin binding to additional unequal site (or 0.5 probability of single site occupancy), and nH is the Hill coefficient (slope factor) for the pool of cooperative sites;
(d) The time course of curves’ decay was fitted using a mono-exponential equation: F4(x) = A1*e^(-x/τdes) + A0, where F4(x) is the current amplitude at the time point x, A1 is the maximal current amplitude, A0 is its steady-state value and τdes is the […].
All data are presented as mean ± SEM. The significance of normalized data differences was determined with a non-parametric Kruskal-Wallis ANOVA test with the significance level * p < 0.05 and ** p < 0.01; ns, non-significant.

uninjected oocytes = assay: Application to uninjected oocytes (negative control); assay type: cell-based, Xenopus laevis; settings: 1 mM rNS
Procedure: as §1, with “peptide. […]” for “peptide.”

[1] = ref [27]; cited from earlier work
Text: (§2) The nocistatin in mammalian is expressed as a precursor protein coding three neuropeptides (nocistatin, nociceptin, and Orphanin FQ2). […] Nocistatin is well represented in different parts of the brain and spinal cord. […] Nocistatin was studied in animal models as a prospective molecule together with opi ...

NIPSNAP1 = settings: ref [32]; cited from earlier work
Text: as §2

[2] = system: canonical transient receptor potential cation (TRPC) channels; settings: via unidentified G-coupled receptor(s), Gαq/11-phospholipase C-protein kinase C pathway; ref [31]; cited from earlier work
Text: as §2

mice = settings: ref [28]; cited from earlier work
Text: as §2

mouse = settings: cited from earlier work
Text: as §2

MPRVRSVVQARDAEPEADAEPVADEADEVEQKQLQ [rNS]
ASIC1a current amplitude, % of control pH 5.5 stimulus (rat ASIC1a; 1 mM nocistatin, conditioning pH 7.4): 95.5 ± 1.8%
ASIC1a current amplitude, % of control pH 5.5 stimulus (rat ASIC1a; 1 mM nocistatin, conditioning pH 7.8): 89.5 ± 2.8%
ASIC1a current amplitude, % of control pH 5.5 stimulus (rat ASIC1a; 1 mM nocistatin, conditioning pH 8.5): 86.7 ± 2.5%
Maximal activating effect versus response to a pH drop of 7.4–5.5 (rat ASIC1a; 1 mM nocistatin, extracellular pH 7.4): comparable to the response to a pH drop of 7.4–5.5
Acurrent, nocistatin versus protons (rat ASIC1a; 1 mM rNS vs pH drop 7.4–5.5): did not differ between protons and nocistatin
tmax, nocistatin versus protons (rat ASIC1a; 1 mM rNS vs pH drop 7.4–5.5): no differences
τdes (desensitization time constant) (rat ASIC1a; 1 mM rNS, conditioning pH 7.4, mono-exponential fit, mean ± S.E. from 4–7 measurements): 1.4 ± 0.1 s
Hill coefficient (nH), integral current activation (rat ASIC1a; integral current, equation F2, n = 5): 4.8 ± 0.7
Hill coefficient (nH) of activation (rat ASIC1a; peak amplitude, pH 7.4, equation F2, n = 5): 7.44 ± 0.95
Effect on uninjected oocytes (uninjected oocytes): did not produce any effects on the uninjected oocytes
Effect on scopolamine-induced impairment of learning and memory [1]: prevented the disruption of learning and memory processes
Binding to NIPSNAP1 (NIPSNAP1): nocistatin binding proteins
Effect on TRPC channels [2]: opening of canonical transient receptor potential cation (TRPC) channels
Effect in elevated plus-maze test (mice): produced anxiogenic-like actions
Effect on nociceptin-caused allodynia and thermal hyperalgesia (mouse; doses of 0.5–500 pg per mouse, ref [29]): eliminated allodynia and thermal hyperalgesia effects
Effect in algogenic-induced nociceptive flexion test (mouse; i.pl. 0.01–1 pmol per mouse, ref [30]): induced pronociceptive responses
